Reference: patent US5800838A, “Composition that inhibits or destroys at least one unicellular living organism containing fluorine F- and Lithium li+” (priority 1987, dated 1998)
Where two headings read alike, the source gives them in different places.

How the values were obtained:
[1] = tested on: Mycobacterium smegmatis CNCM 7 326; test: MIC, French standard NF T 72-150, AFNOR strain; format: cell-based; details: in the presence of LiF at 1 mg/l
Method: (§1) French standard NF T 72-150, March 1981, was followed by the trials carried out. The trials were performed on the strains defined by the AFNOR standard.
(§2) The results obtained on the strains defined by the AFNOR standard for benzalkonium chloride alone and for benzalkonium chloride with the addition of 1 mg/l of sodium fluoride were already given in unpublished European Patent Application 86/402,716.4, and have been recorded again.

[2] = tested on: Pseudomonas aeruginosa CNCM A 22; test: MIC, French standard NF T 72-150, AFNOR strain; format: cell-based; details: in the presence of LiF at 1 mg/l
Method: as §1, §2

[3] = tested on: Streptococcus faecalis CNCM 5 855; test: MIC, French standard NF T 72-150, AFNOR strain; format: cell-based; details: in the presence of LiF at 1 mg/l
Method: as §1, §2

[4] = tested on: Staphylococcus aureus Oxford strain CNCM 53 154; test: MIC, French standard NF T 72-150, AFNOR strain; format: cell-based; details: in the presence of LiF at 1 mg/l
Method: as §1, §2

[5] = tested on: Escherichia coli CNCM 54 127; test: MIC, French standard NF T 72-150, AFNOR strain; format: cell-based; details: in the presence of LiF at 1 mg/l
Method: as §1, §2

spermatozoa [6] = details: in the initial 1 millilitre, cited from earlier work
Chlamydia trachomatis = test: MIC on Chlamydia trachomatis strains; format: cell-based; details: listed test strain, read-out: MIC of benzalkonium chloride
Method: The test was performed on 12 strains of Chlamydia trachomatis originating from hospital sources, in particular from cases of urethritis. All the trials were performed in duplicate, and the results compared with those for a listed control strain.
The MIC corresponds to the concentration of benzalkonium chloride at and above which the average number of colonies in Petri dishes containing the active substance is less than one tenth of the average number of colonies in Petri dishes without active substance.

spermatozoa [7] = test: SANDERS-CRAMER total spermicidal test according to IPPF standards; format: cell-based; details: with 1 ml solution containing 0.0001% lithium fluoride; in the initial 1 millilitre
Neisseria gonorrhoea = test: MIC on hospital strains (Example 13); format: cell-based; details: read-out: MIC of benzalkonium chloride
Method: (§3) The same trials as in example 12 were carried out on hospital strains of various microorganisms.

Streptococcus faecalis = test: MIC on hospital strains (Example 13); format: cell-based; details: Enterococcus faecalis, read-out: MIC of benzalkonium chloride
Method: as §3

Ducrey's bacillus = test: MIC on hospital strains (Example 13); format: cell-based; details: read-out: MIC of benzalkonium chloride
Method: as §3

Bacillus subtilis = test: MIC on hospital strains (Example 13); format: cell-based; details: read-out: MIC of benzalkonium chloride
Method: as §3

Sarcina lutea = test: MIC on hospital strains (Example 13); format: cell-based; details: Micrococcus luteus, read-out: MIC of benzalkonium chloride
Method: as §3

Candida albicans = test: MIC on hospital strains (Example 13); format: cell-based; details: read-out: MIC of benzalkonium chloride
Method: as §3

Gardenerella vaginalis = test: MIC on hospital strains (Example 13); format: cell-based; details: read-out: MIC of benzalkonium chloride
Method: as §3

Aspergillus niger = test: MIC on hospital strains (Example 13); format: cell-based; details: read-out: MIC of benzalkonium chloride
Method: as §3

Trichomonas vaginalis = test: MIC on hospital strains (Example 13); format: cell-based; details: read-out: MIC of benzalkonium chloride
Method: as §3

Escherichia coli = test: MIC on hospital strains (Example 13); format: cell-based; details: read-out: MIC of benzalkonium chloride
Method: as §3

Staphylococcus aureus = test: MIC on hospital strains (Example 13); format: cell-based; details: read-out: MIC of benzalkonium chloride
Method: as §3

[8] = tested on: Staphylococcus aureus Oxford strain CNCM 53 154; details: cited from earlier work
Gardnerella vaginalis = test: Contact methodology AFNOR standard I 72-151, strains surviving (second trial); format: cell-based; details: 15-min contact, NaF or LiF 1 mg/l where added
Method: The second trial carried out was performed according to the contact methodology described in AFNOR standard I 72-151, by counting the strains surviving after a 15-min active substance/microbacterial solution contact followed by a filtration on a membrane (porosity 0.22 μm).
In this trial, 26 wild-type strains of Gardnerella vaginalis were tested, originating from hospital sources. The starting solution contained 0.1% of benzalkonium chloride, and was then diluted to 10^-1, 10^-2, 10^-3 and 10^-4. The results are summarized in the table below, which gives the total number of strains surviving (out of the 26 tested) in terms of the dilution.

[9] = tested on: Pseudomonas aeruginosa CNCM A 22; details: cited from earlier work
[10] = tested on: Streptococcus faecalis CNCM 5 855; details: cited from earlier work
MAC COY cells = details: mouse
Pseudomonas aeruginosa = test: MIC on 200 wild-type strains of Pseudomonas aeruginosa (Examples 19 and 20); format: cell-based; details: Pseudomonas aeruginosa
Method: With the same methodology as above, the MIC values of benzalkonium chloride alone, in the presence of the KATHON CG (registered trademark) preservative (1 mg/l), and then in the presence of KATHON CG (registered trademark) (1 mg/l) and lithium fluoride (1 mg/l), were determined. 200 wild-type strains of Pseudomonas aeruginosa were tested.
The same trial as in Example 19 was performed, but with nonoxinol 9 as the primary active principle: 200 wild-type strains of Pseudomonas aeruginosa were also tested.

[11] = in the presence of LiF at 1 ppm
[12] = in the presence of NaF at 1 mg/l

For `CCCCCCCCCCCCCC[N+](C)(C)Cc1ccccc1.[Cl-]` [benzalkonium chloride, myristyldimethylbenzylammonium chloride], the “MIC of benzalkonium chloride” value [1] was 22 µg/mL, the “MIC of benzalkonium chloride” value [2] was 15 µg/mL and the “MIC of benzalkonium chloride” value [3] was 2.8 µg/mL. The “MIC of benzalkonium chloride” value [4] was 1.1 µg/mL, the “MIC of benzalkonium chloride” value [5] was 2 µg/mL and the “MIC of benzalkonium chloride” value (spermatozoa [6]; alone) was 0.006%. For the same molecule, the “MIC of benzalkonium chloride” value (spermatozoa [6]; with 1 ml solution containing 0.0001% F^- anions) was 0.002%, the MIC (Chlamydia trachomatis; 1 mg/ml added (lithium fluoride)) was 13 µg/mL and the MIC (Chlamydia trachomatis; alone) was 18 µg/mL. The “MIC of benzalkonium chloride” value (spermatozoa [7]) was 0.0009%, the MIC (Neisseria gonorrhoea; alone) was 1.15 µg/mL and the MIC (Neisseria gonorrhoea; [11]) was 0.6 µg/mL. It also gave an MIC (Streptococcus faecalis; alone) of 15 µg/mL, an MIC (Streptococcus faecalis; [11]) of 9 µg/mL and an MIC (Ducrey's bacillus; alone) of 75 µg/mL. The MIC (Ducrey's bacillus; [11]) was 62 µg/mL, the MIC (Bacillus subtilis; alone) was 8 µg/mL and the MIC (Bacillus subtilis; [11]) was 5.4 µg/mL. The MIC (Sarcina lutea; alone) was 11 µg/mL, the MIC (Sarcina lutea; [11]) was 7.5 µg/mL and the MIC (Candida albicans; alone) was 50 µg/mL. It also gave an MIC (Candida albicans; [11]) of 35 µg/mL, an MIC (Gardenerella vaginalis; alone) of 50 µg/mL and an MIC (Gardenerella vaginalis; [11]) of 41 µg/mL. It also gave an MIC (Aspergillus niger; alone) of 85 µg/mL, an MIC (Aspergillus niger; [11]) of 80 µg/mL and an MIC (Trichomonas vaginalis; alone) of 1.3 µg/mL. The MIC (Trichomonas vaginalis; [11]) was 0.9 µg/mL, the MIC (Escherichia coli; alone) was 8 µg/mL and the MIC (Escherichia coli; [11]) was 6.5 µg/mL. The MIC (Staphylococcus aureus; alone) was 1.56 µg/mL, the MIC (Staphylococcus aureus; [11]) was 1 µg/mL and the “MIC of benzalkonium chloride” value ([8]; alone) was 1.56 µg/mL. For the same molecule, the “MIC of benzalkonium chloride” value [8, 12] was 1.1 µg/mL, the “total number of strains surviving (out of the 26 tested)” value (from here on “total number of strains surviving”) (Gardnerella vaginalis; 0.1% solution diluted 10^-1) was 0 and the “total number of strains surviving” value (Gardnerella vaginalis; 0.1% solution diluted 10^-2) was 18. For the same molecule, the “total number of strains surviving” value (Gardnerella vaginalis; 0.1% solution diluted 10^-3) was 22, the “total number of strains surviving” value (Gardnerella vaginalis; 0.1% solution diluted 10^-4) was 26 and the “MIC of benzalkonium chloride” value ([9]; alone) was 31.25 µg/mL. The “MIC of benzalkonium chloride” value [9, 12] was 18 µg/mL, the “MIC of benzalkonium chloride” value ([10]; alone) was 4 µg/mL and the “MIC of benzalkonium chloride” value [10, 12] was 3.6 µg/mL. For the same molecule, the “threshold of cytotoxic activity” value (MAC COY cells) was 0.01%, the MIC (Pseudomonas aeruginosa; + KATHON CG (1 mg/l) + LiF (1 mg/l), strain Tic R βLac^+) was 16 µg/mL and the MIC (Pseudomonas aeruginosa; + KATHON CG (1 mg/l) + LiF (1 mg/l), strain Tic R βLac^+ OXA) was 16 µg/mL. For the same molecule, the MIC (Pseudomonas aeruginosa; + KATHON CG (1 mg/l) + LiF (1 mg/l), strain Tic R βLac^+ PSE) was 32 µg/mL, the MIC (Pseudomonas aeruginosa; + KATHON CG (1 mg/l) + LiF (1 mg/l), strain Tic R βLac^+ TEM) was 32 µg/mL and the MIC (Pseudomonas aeruginosa; + KATHON CG (1 mg/l) + LiF (1 mg/l), strain Tic R βLac^+ cephalosporinase) was 32 µg/mL. The MIC (Pseudomonas aeruginosa; + KATHON CG (1 mg/l) + LiF (1 mg/l), strain Tic S βLac^-) was 16 µg/mL, the MIC (Pseudomonas aeruginosa; + KATHON CG (1 mg/l), strain Tic R βLac^+ OXA, read-out: MIC) was 32 µg/mL and the MIC (Pseudomonas aeruginosa; + KATHON CG (1 mg/l), strain Tic R βLac^+ PSE, read-out: MIC) was 64 µg/mL. It also gave an MIC (Pseudomonas aeruginosa; + KATHON CG (1 mg/l), strain Tic R βLac^+ TEM, read-out: MIC) of 32 µg/mL, an MIC (Pseudomonas aeruginosa; + KATHON CG (1 mg/l), strain Tic R βLac^+ cephalosporinase, read-out: MIC) of 128 µg/mL and an MIC (Pseudomonas aeruginosa; + KATHON CG (1 mg/l), strain Tic R βLac^+, read-out: MIC) of 32 µg/mL. For the same molecule, the MIC (Pseudomonas aeruginosa; + KATHON CG (1 mg/l), strain Tic S βLac^-, read-out: MIC) was 16 µg/mL, the MIC (Pseudomonas aeruginosa; alone, strain Tic R βLac^+) was 64 µg/mL and the MIC (Pseudomonas aeruginosa; alone, strain Tic R βLac^+ OXA, read-out: MIC) was 64 µg/mL. It also gave an MIC (Pseudomonas aeruginosa; alone, strain Tic R βLac^+ PSE, read-out: MIC) of 64 µg/mL, an MIC (Pseudomonas aeruginosa; alone, strain Tic R βLac^+ TEM, read-out: MIC) of 32 µg/mL and an MIC (Pseudomonas aeruginosa; alone, strain Tic R βLac^+ cephalosporinase, read-out: MIC) of 128 µg/mL. It also gave an MIC (Pseudomonas aeruginosa; alone, strain Tic S βLac^-, read-out: MIC) of 32 µg/mL.
